Assay results from PubChem BioAssay (NCI).
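1) Cells in 96-well plates. 2) Compound, 48 h, 5 concentrations. 3) Linear interpolation between surrounding doses. 4) Unreached endpoint = highest concentration. GI50 marks 50% less growth. TGI denotes the concentration required for complete inhibition of growth.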

Assays:
Test in all cases: DTP human tumour cell line panel, 48 h
[1] = test system: NCI-H23 lung
[2] = test system: HOP-92 NSCLC
[3] = test system: PC-3 prostate
[4] = test system: SNB-19 CNS
[5] = test system: DU-145 prostate
[6] = test system: EKVX NSCLC
[7] = test system: COLO 205 colon
[8] = test system: SN12C renal
[9] = test system: UACC-257 melanoma
[10] = test system: MOLT-4 leukemia

SMILES	GI50 [1]	TGI [1]	TGI [2]	GI50 [3]	TGI [3]	GI50 [4]	TGI [4]	GI50 [5]	TGI [5]	GI50 [6]	TGI [6]	GI50 [7]	GI50 [8]	TGI [8]	GI50 [9]	TGI [9]	GI50 [10]	TGI [10]	GI50 [2]	TGI [7]
COc1cc2c(/C=C3/C(=O)Nc4c3ccc3ccccc43)c(Cl)[nH]c2cc1C	0.0152 µM	4.59 µM	> 31.1 µM	0.0152 µM	> 16.8 µM	0.0402 µM	> 50 µM	0.165 µM	> 15.7 µM	0.222 µM	> 36.3 µM	0.0715 µM	0.071 µM	> 19.6 µM	0.316 µM	> 50 µM				
COC(C(=O)[C@@H](O)[C@@H](C)O)[C@@H]1Cc2cc3cc(O[C@H]4C[C@@H](O[C@H]5C[C@@H](O)[C@H](O)C(C)O5)[C@H](O)C(C)O4)c(C)c(O)c3c(O)c2C(=O)[C@H]1O[C@H]1C[C@@H](O[C@H]2C[C@@H](O[C@H]3C[C@@H](O)[C@@H](O)C(C)O3)[C@@H](O)C(C)O2)[C@H](O)C(C)O1 (some centres undefined)	0.242 µM	9.05 µM	2.03 µM	0.914 µM	> 32.5 µM	0.324 µM	> 32.5 µM	0.61 µM	> 32.5 µM	0.78 µM	> 32.5 µM		0.265 µM	> 32.5 µM	0.295 µM	2.04 µM	1.04 µM	> 32.5 µM	0.119 µM	
O=C1/C(=c2\c3ccccc3n3c(=O)c4ccccc4nc23)Nc2ccccc21		> 100 µM	> 100 µM		> 100 µM		> 100 µM		> 100 µM		> 100 µM			> 100 µM		> 100 µM		> 31.6 µM		> 100 µM
O=C(O)c1cn(C2CC2)c2cc(N3CCN(C(=O)Nc4nc(-c5ccc(Cl)cc5)cs4)CC3)c(F)cc2c1=O	2.08 µM	39.5 µM	7.63 µM	2.7 µM	> 100 µM	2.74 µM	> 100 µM	2.29 µM	> 100 µM	2.97 µM	> 100 µM	3.32 µM	3.53 µM	> 100 µM	2.92 µM	8.24 µM			1.85 µM	> 100 µM
CCOC(=O)c1c2c(n3cccc(F)c13)C(=O)c1ncccc1C2=O	0.173 µM	3.09 µM	9.24 µM	0.449 µM	7.63 µM	0.0703 µM	4.49 µM	0.0761 µM	2.84 µM	1.07 µM	15.8 µM	1.27 µM	0.457 µM	17.6 µM	0.849 µM	6.37 µM	3.06 µM	23.7 µM	2.22 µM	7.2 µM
OCCCNC(=S)Nc1ccc(-c2nc3ccccc3s2)cc1	24.3 µM	60.8 µM	82.9 µM	27.7 µM	> 100 µM	32.2 µM	> 100 µM	40.9 µM	> 100 µM	17 µM	83.2 µM	30 µM	22.8 µM	54.8 µM	27.1 µM	51.9 µM	16.7 µM	> 100 µM	19.7 µM	> 100 µM
O=C(Nc1ncc(Cc2ccc(Cl)cc2)s1)c1ccc2c(c1)OCCO2	0.298 µM	> 100 µM	> 100 µM	0.047 µM	> 100 µM	0.08 µM	> 92.4 µM	0.05 µM	9.38 µM	0.412 µM	> 100 µM	0.0492 µM	0.155 µM	> 100 µM	5.8 µM	> 100 µM	0.0877 µM	> 100 µM	2.12 µM	1.19 µM
CC(=O)O[C@@H]1CC(=O)O[C@@H]2C[C@@H](CC/C(Cl)=C/C/C=C\1C)O[C@@H]2CO	> 25 µM	> 25 µM	> 25 µM	> 25 µM	> 25 µM	> 25 µM	> 25 µM	> 22.1 µM	> 25 µM	> 15 µM	> 25 µM	> 25 µM	> 25 µM	> 25 µM	> 25 µM	> 25 µM	> 25 µM	> 25 µM	> 25 µM	> 25 µM
CCN(CC)CCCC(C)Nc1ccnc2cc(Cl)c(SCc3ccccc3)cc12 (centres undefined)	1.55 µM	3.57 µM	3.2 µM	1.72 µM	3.96 µM	1.78 µM	4.41 µM	3.45 µM	13.5 µM	1.93 µM	6.75 µM	1.04 µM	1.7 µM	4.07 µM	0.781 µM	2.11 µM	0.623 µM	4.14 µM	1.14 µM	2.3 µM
Cc1ccc(S(=O)(=O)C2=C3C(=C(c4ccccc4)c4ccccc43)CN(S(=O)(=O)c3ccc(C)cc3)C2)cc1	3.36 µM	23.7 µM	13.8 µM	3.39 µM	> 100 µM	12.9 µM	55.7 µM	11.8 µM	> 100 µM	6.01 µM	> 100 µM	14.9 µM	3.04 µM	20.1 µM	15.8 µM	37.4 µM	1.36 µM	7.9 µM	1.86 µM	> 100 µM
CCNCCNc1cc(C2CCCC2)c(C#N)c2nc3ccccc3n12	7.42 µM	24.3 µM	4.4 µM	6.1 µM	19.3 µM	6.26 µM	21.1 µM	3.71 µM	13.8 µM	4.73 µM	21.5 µM	2 µM	3.61 µM	12.9 µM	2.58 µM	4.74 µM			2.08 µM	4.71 µM
Cc1ccc(C2CC(c3cccc(Nc4ccncc4)c3)=NN2c2ccc(Cl)cc2)cc1 (centres undefined)	1.77 µM	3.39 µM	2.74 µM	1.59 µM	3.08 µM			1.8 µM	3.21 µM	1.48 µM	2.88 µM	1.73 µM	1.66 µM	3.13 µM			1.85 µM	4.12 µM	1.38 µM	3.6 µM
COc1ccc(C2SC(C)C(=O)N2NC(=O)C(O)c2ccccc2)cc1 (centres undefined)			> 100 µM	> 100 µM	> 100 µM	> 100 µM	> 100 µM	> 100 µM	> 100 µM	> 100 µM	> 100 µM	> 100 µM	> 100 µM	> 100 µM	> 100 µM	> 100 µM	> 100 µM	> 100 µM	> 100 µM	> 100 µM
